The values below come from PMC5983371 (Experimental eye research, 2018).

The target of the assay is rhodopsin (light-activated, metarhodopsin II) (Bos taurus, UniProt P02699). Description: UV/Visible extra Meta II stabilization assay. The format is binding.

pEC50: −log10 of the molar value.

Chain of rhodopsin (light-activated, metarhodopsin II) (P02699 whole entry): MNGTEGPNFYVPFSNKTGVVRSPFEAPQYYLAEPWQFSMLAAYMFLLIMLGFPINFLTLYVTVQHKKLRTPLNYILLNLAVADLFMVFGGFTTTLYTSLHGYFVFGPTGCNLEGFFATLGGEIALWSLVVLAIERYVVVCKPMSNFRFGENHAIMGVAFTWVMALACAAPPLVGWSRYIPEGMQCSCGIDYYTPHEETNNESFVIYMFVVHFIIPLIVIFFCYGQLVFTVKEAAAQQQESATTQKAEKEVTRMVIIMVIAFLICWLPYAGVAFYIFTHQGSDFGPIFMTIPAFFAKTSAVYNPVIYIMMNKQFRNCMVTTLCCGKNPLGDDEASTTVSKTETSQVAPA

In turn, `C[C@H](CCC(=O)NCCS(=O)(=O)O)[C@H]1CC[C@H]2[C@@H]3[C@@H](O)C[C@@H]4C[C@H](O)CC[C@]4(C)[C@H]3CC[C@]12C` [TUDCA, Tauroursodeoxycholic acid] gave a pEC50 of 3.35.

Broadly, the pEC50 is the EC50 on a negative log10 scale, so that one unit is a factor of ten.
